Results: PubChem BioAssay AID1963826 (Molecular Pharmacology Branch, DTP, NCI, 2024)

Tested on: 926638-142-R-J1-PDC complex spheroid viability
Assay: Anticancer human tumor 926638-142-R-J1-PDC patient-derived endometrial carcinoma cell line growth inhibition [POLQ]
Settings: for IC50: curve of first compound; for viability, T/C: stronger effect = lower value
Experimental: Multicellular complex tumor spheroid response to Polymerase (POL) inhibitors (novobiocin, ART-558, RP6685) in combination with a variety of drugs and investigational agents in selected tumor cell lines
The POL inhibitors (novobiocin, ART-558, and RP6685) were evaluated both individually and in combination with standard of care and investigational anticancer small molecules within a complex spheroid model of solid tumors. . Complex spheroids include a stromal component modeled by human endothelial cells (HUVEC) and fibroblasts modeled by human mesenchymal stem cells (MSCs). The concentration ranges selected for each drug and investigational agent were based upon clinically achievable concentrations if the clinical Cmax of the agent was known.
Compounds. The drugs and investigational agents: novobiocin (NSC847541), ART-558 (NSC835418), RP-6685 (NSC848927), peposertib (NSC802822), ceralasertib (NSC780249), elimusertib (NSC800525), camonsertib (NSC841442), AZD-1390 (NSC803789), olaparib (NSC753686), talazoparib (NSC767125), rucaparib (NSC756644), sotorasib (NSC818433), MRTX-1133 (NSC836407), SN-38 (NSC673596), topotecan (NSC609699), epotoside (NSC141540), doxorubicin (NSC123127), gemcitabine (NSC613327), 5-fluorouracil (NSC19893), paclitaxel (NSC125973), vemurafenib (NSC761431), MSA-2 (NSC828583), SN-011 (NSC837082), adavosertib (NSC754352), prexasertib (NSC758257), carboplatin (NSC241240) and oxaliplatin (NSC266046), were obtained from the National Cancer Institute (NCI) Developmental Therapeutics Program Chemical Repository (21). The FDA-approved anticancer drug set is available from the Developmental Therapeutics Program at https://dtp.cancer.gov/organization/dscb/obtaining/. […] The stock solutions were prepared in dimethyl sulfoxide (DMSO, Sigma-Aldrich, St. Louis, MO, cat. D2650), except for the platinum compounds which were prepared in saline (Quality Biological, Gaithersburg, MD, cat. 114-055-101), at 800-fold the tested concentration and stored at -70 degrees C prior to their use. All drugs and investigational agents were tested over a range starting from a high concentration at or near the clinical Cmax and decreasing in half-log increments. If the clinical Cmax for an agent had not been determined, the highest concentration tested was 10 microM, except for SN-38, which was tested at a high concentration of 1 microM.
Cell Culture. All cells were maintained in an incubator at 37 degrees C and 5% CO2 with 95% humidity. The PDC lines were cultured according to standard operating procedures established by the NCI PDMR (https://pdmr.cancer.gov). Table 3 of the manuscript, lists the cell lines along with the number of the three cell types plated to form the mct-spheroids and media for tumor cell growth. After thawing, all PDC lines, except 997537-175-T-J1-PDC and 415267-285-R-J2-PDC, were cultured in Matrigel-coated flasks prepared with a working solution of 1X Ham's F-12 nutrient mix, without supplementation (Thermo Fisher Scientific, cat. 11765054), 100 U/mL penicillin-streptomycin (Thermo Fisher Scientific, cat. 15140122), and 2.5% Matrigel (Corning Inc., Corning, NY, cat. 354248) for the first three passages. The two PDC lines 997537-175-T-J1-PDC and 415267-285-R-J2-PDC were cultured on uncoated flasks. The 857933-349-R-J2-PDC line was cultured in 6C/Colon 1B media containing advanced DMEM/F-12 (Thermo Fisher Scientific, cat. 12634028), 10 mM HEPES (Thermo Fisher Scientific, cat. 15630080), 1X GlutaMAX supplement (Thermo Fisher Scientific, cat. 35050061), 0.1 mg/mL primocin (InvivoGen, San Diego, CA, cat. ant-pm-2), 10% defined fetal bovine serum, heat inactivated (HyClone Laboratories Inc., Logan, UT, cat. SH30070.03HI), 50% L-WRN conditioned media (ATCC, cat. CRL-3276), 1.25 mM N-Acetyl-L-cysteine (Sigma-Aldrich, cat. A9165), 10 mM nicotinamide (Sigma-Aldrich, cat. N0636), 1X B-27 supplement (Thermo Fisher Scientific, cat. 17504044), 1X N-2 supplement (Thermo Fisher Scientific, cat. […]

[1] = second compound 0.0316 µM, first compound 0.0316 µM
[2] = second compound 0.0316 µM, first compound 0.1 µM
[3] = second compound 0.0316 µM, first compound 0.316 µM
[4] = second compound 0.0316 µM, first compound 1 µM
[5] = second compound 0.0316 µM, first compound 3.16 µM
[6] = second compound 0.0316 µM, first compound 10 µM
[7] = second compound 0.1 µM, first compound 0.0316 µM
[8] = second compound 0.1 µM, first compound 0.1 µM
[9] = second compound 0.1 µM, first compound 0.316 µM
[10] = second compound 0.1 µM, first compound 1 µM
[11] = second compound 0.1 µM, first compound 3.16 µM
[12] = second compound 0.1 µM, first compound 10 µM
[13] = second compound 0.316 µM, first compound 0.0316 µM
[14] = second compound 0.316 µM, first compound 0.1 µM
[15] = second compound 0.316 µM, first compound 0.316 µM
[16] = second compound 0.316 µM, first compound 1 µM
[17] = second compound 0.316 µM, first compound 3.16 µM
[18] = second compound 0.316 µM, first compound 10 µM
[19] = second compound 1 µM, first compound 0.0316 µM
[20] = second compound 1 µM, first compound 0.1 µM
[21] = second compound 1 µM, first compound 0.316 µM
[22] = second compound 1 µM, first compound 1 µM
[23] = second compound 1 µM, first compound 3.16 µM
[24] = second compound 1 µM, first compound 10 µM
[25] = second compound 3.16 µM, first compound 0.0316 µM
[26] = second compound 3.16 µM, first compound 0.1 µM
[27] = second compound 3.16 µM, first compound 0.316 µM
[28] = second compound 3.16 µM, first compound 1 µM
[29] = second compound 3.16 µM, first compound 3.16 µM
[30] = second compound 3.16 µM, first compound 10 µM
[31] = second compound 10 µM, first compound 0.0316 µM
[32] = second compound 10 µM, first compound 0.1 µM
[33] = second compound 10 µM, first compound 0.316 µM
[34] = second compound 10 µM, first compound 1 µM
[35] = second compound 10 µM, first compound 3.16 µM
[36] = second compound 10 µM, first compound 10 µM
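Note: spheroids exposed to drugs for one week before readout.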
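Throughout, for viability, T/C: percent viability relative to DMSO vehicle control wells set as 100%.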

C#Cc1c(F)ccc2cc(O)cc(-c3ncc4c(N5CC6CCC(C5)N6)nc(OCC56CCCN5CC(F)C6)nc4c3F)c12 (centres undefined) + COC1C(OC(N)=O)C(O)C(Oc2ccc3c(O)c(NC(=O)c4ccc(O)c(CC=C(C)C)c4)c(=O)oc3c2C)OC1(C)C
IC50 (second compound 0.0316 µM): > 10000 nM
IC50 (second compound 0.1 µM): > 10000 nM
IC50 (second compound 0.316 µM): > 10000 nM
IC50 (second compound 1 µM): > 10000 nM
IC50 (second compound 3.16 µM): > 10000 nM
IC50 (second compound 10 µM): > 10000 nM
viability, T/C [1]: 99.4%
viability, T/C [2]: 84.1%
viability, T/C [3]: 89%
viability, T/C [4]: 84.2%
viability, T/C [5]: 60.1%
viability, T/C [6]: 54.6%
viability, T/C [7]: 90.2%
viability, T/C [8]: 86.6%
viability, T/C [9]: 81.3%
viability, T/C [10]: 72.9%
viability, T/C [11]: 66.4%
viability, T/C [12]: 51.9%
viability, T/C [13]: 97.1%
viability, T/C [14]: 73.7%
viability, T/C [15]: 89.4%
viability, T/C [16]: 64.9%
viability, T/C [17]: 59.4%
viability, T/C [18]: 65.9%
viability, T/C [19]: 84.8%
viability, T/C [20]: 81.7%
viability, T/C [21]: 80.9%
viability, T/C [22]: 71.9%
viability, T/C [23]: 72.2%
viability, T/C [24]: 61.9%
viability, T/C [25]: 78.9%
viability, T/C [26]: 84.2%
viability, T/C [27]: 77.9%
viability, T/C [28]: 72.2%
viability, T/C [29]: 64.4%
viability, T/C [30]: 52.5%
viability, T/C [31]: 85.2%
viability, T/C [32]: 73.5%
viability, T/C [33]: 91.3%
viability, T/C [34]: 67.4%
viability, T/C [35]: 68.4%
viability, T/C [36]: 62.9%

CCc1cc2c(N3CCc4c(cc(Cn5ccnc5)cc4-c4cn(C)nc4C(F)(F)F)C3=O)ccnc2c(OC)n1 + COC1C(OC(N)=O)C(O)C(Oc2ccc3c(O)c(NC(=O)c4ccc(O)c(CC=C(C)C)c4)c(=O)oc3c2C)OC1(C)C
IC50 (second compound 0.0316 µM): 242 nM
IC50 (second compound 0.1 µM): 382 nM
IC50 (second compound 0.316 µM): 332 nM
IC50 (second compound 1 µM): 258 nM
IC50 (second compound 3.16 µM): 225 nM
IC50 (second compound 10 µM): 299 nM
viability, T/C [1]: 81.8%
viability, T/C [2]: 60.3%
viability, T/C [3]: 46.7%
viability, T/C [4]: 38.5%
viability, T/C [5]: 28%
viability, T/C [6]: 25.9%
viability, T/C [7]: 81.9%
viability, T/C [8]: 63.8%
viability, T/C [9]: 54.2%
viability, T/C [10]: 40.9%
viability, T/C [11]: 25.8%
viability, T/C [12]: 22.7%
viability, T/C [13]: 77.7%
viability, T/C [14]: 57.7%
viability, T/C [15]: 52.6%
viability, T/C [16]: 43%
viability, T/C [17]: 28.6%
viability, T/C [18]: 26.6%
viability, T/C [19]: 91.7%
viability, T/C [20]: 60.2%
viability, T/C [21]: 46.5%
viability, T/C [22]: 45%
viability, T/C [23]: 22.5%
viability, T/C [24]: 26.1%
viability, T/C [25]: 85.2%
viability, T/C [26]: 54.2%
viability, T/C [27]: 48.5%
viability, T/C [28]: 38.5%
viability, T/C [29]: 28.1%
viability, T/C [30]: 21.1%
viability, T/C [31]: 79.1%
viability, T/C [32]: 64.5%
viability, T/C [33]: 47%
viability, T/C [34]: 40.1%
viability, T/C [35]: 32%
viability, T/C [36]: 25.9%
